From paper PMC5050390, “Transport of Corilagin, Gallic Acid, and Ellagic Acid from Fructus Phyllanthi Tannin Fraction in Caco-2 Cell Monolayers” (Evidence-based Complementary and Alternative Medicine : eCAM, 2016)

Columns and labels:
Caco-2 cell monolayers = assay: Transport of PTF constituents across Caco-2 cell monolayers (LC-MS quantification); type: in vitro ADME, human; parameters: efflux ratio at 180 min / Papp A→B at 180 min: dose or concentration left out as unconfirmed; details: for change of transport with tight junction modulators SDS and PLL: SDS and PLL 50 μg/mL; for PDR (ratio of P app BL→AP to P app AP→BL): compound in PTF 1.00 mg/mL; for change of transport (P app) in presence of indomethacin: indomethacin 10 μM (MRPs/OATP inhibitor); for change of transport (P app) in presence of indomethacin / change of transport (P app) in presence of phloridzin / change of transport (P app) in presence of verapamil: PTF 1.00 mg/mL, 120 min; for change of transport (P app) in presence of phloridzin: phloridzin 50 μM (SGLT1 inhibitor); for change of transport (P app) in presence of verapamil: verapamil 100 μM (P-gp inhibitor)
Description: (§1) When cells were cultured to 80% confluence, they were seeded in 12-well Transwell-Clear plates at a density of 1.2 × 10^5 cells/insert. Cells were cultured for 21 days to reach confluence and functional differentiation. Complete medium was replaced every 2 days for the first 2 weeks and daily renewed for the last 7 days. All cells were between passages 35 and 55. […] After 21-day culture, the complete medium was removed and the monolayer was washed three times and balanced with HBSS (previously warmed to 37°C) for 30 min. […] […] All samples were dried with organomation. Before analyzing, the dry samples were dissolved in methanol/water/acetic acid (200 : 200 : 1, v/v/v) and the insoluble substance was eliminated with centrifugation 12000 rpm for 5 min. Protein inhibitors including verapamil (100 μM), indomethacin (10 μM), and phloridzin (50 μM) were employed to investigate the role of different transporters. Epithelial tight junction modulators such as SDS (50 μg/mL) and PLL (50 μg/mL) were used to evaluate the role of paracellular permeability. Hydrophilic marker sodium fluorescein (0.6 mg/mL) was used for the evaluation of the integrity of the cell monolayer. […] The column temperature was 20°C and the injection volume was 20 μL. MS/MS analysis was acquired using an Agilent 6410 triple quadrupole mass spectrometer (Agilent Technologies, CA, USA) equipped with an electrospray ionisation (ESI) in the negative mode. Other analytical conditions included the drying gas temperature of 300°C, the drying gas flow of 11 L/min, the nebulizer pressure of 35 psi, and the capillary voltage of 4 kV. To get the highest abundance, the fragmentor voltage and collision energy were optimized. Data acquisition and processing were accepted by Agilent Mass Hunter workstation software version B.05.00 using multiple reaction monitoring (MRM). The quantification was performed using external standard method. […] Here, dC/dt is the change in concentration on the receiver side over time; V is the volume of the solution in the receiver chamber; A is the surface area of the cell monolayer; C 0 is the initial concentration in the donor chamber. PDR is the ratio of P app(BL→AP) to P app(AP→BL).

[1] = as above; type: in vitro ADME, human; parameters: efflux ratio at 180 min / Papp A→B at 180 min: dose or concentration left out as unconfirmed; details: human, Caco-2, 180 min; for efflux ratio at 180 min: read-out: PDR (ratio of P app BL→AP to P app AP→BL)
Description: as §1

[2] = parameters: method as in earlier work; details: rats, oral PTF 6 g/kg; cited from earlier work
Caco-2 cell monolayer = tested on: Caco-2 cell monolayer; parameters: method as in PMID 14646189; details: pure compound; cited from earlier work
[3] = compound in PTF 1.00 mg/mL, mean ± SEM (n = 3)

change of transport with tight junction modulators SDS and PLL (Caco-2 cell monolayers) | PDR (ratio of P app BL→AP to P app AP→BL) (Caco-2 cell monolayers; 180 min) | secretion transport P app (BL→AP) (Caco-2 cell monolayers; human, Caco-2, 180 min) | change of transport (P app) in presence of indomethacin (Caco-2 cell monolayers) | change of transport (P app) in presence of phloridzin (Caco-2 cell monolayers) | change of transport (P app) in presence of verapamil (Caco-2 cell monolayers) | efflux ratio at 180 min [1] | Papp A→B at 180 min, 1 mg/mL [1, 3] [×10⁻⁶ cm/s] | Papp B→A at 180 min [1, 3] [×10⁻⁶ cm/s] | absorption transport P app (AP→BL) (Caco-2 cell monolayers; compound in PTF) | Compound | peak concentration (C max) [2] | secretion transport P app (BL→AP) (Caco-2 cell monolayers; compound in PTF) | Papp A→B at 180 min ([1]; mean ± SEM (n = 3)) [×10⁻⁶ cm/s] | P app of GA across Caco-2 cell monolayer (Caco-2 cell monolayer) | P app of marker across the monolayers (Caco-2 cell monolayers; sodium fluorescein 0.6 mg/mL, monolayer integrity check)
greatly improved | more than 1.5 | ~10^−6 cm/s | significantly increased | no considerable change | significantly increased | 12.5 | 0.174 ± 0.019 | 2.18 ± 0.228 |  | O=C(O[C@@H]1O[C@@H]2COC(=O)c3cc(O)c(O)c(O)c3-c3c(cc(O)c(O)c3O)C(=O)O[C@H]([C@H]1O)[C@@H]2O)c1cc(O)c(O)c(O)c1 [Corilagin] | lower than 10.47 μg/mL |  |  |  | 
greatly improved | less than 1.5 |  | strongly decreased | strongly decreased | no substantial difference | 1.31 |  | 0.456 ± 0.01 | ~10^−7 cm/s | O=c1oc2c(O)c(O)cc3c(=O)oc4c(O)c(O)cc1c4c23 [Ellagic acid] | lower than 10.47 μg/mL | ~10^−7 cm/s | 0.347 ± 0.018 |  | 
 |  |  |  |  |  |  |  |  |  | O=C([O-])c1ccccc1-c1c2ccc(=O)cc-2oc2cc([O-])ccc12.[Na+].[Na+] [sodium fluorescein, reference compound] |  |  |  |  | 3.16 ± 0.25 × 10^−7 cm/s

Compound | change of transport with tight junction modulators SDS and PLL (Caco-2 cell monolayers) | PDR (ratio of P app BL→AP to P app AP→BL) (Caco-2 cell monolayers; 180 min) | secretion transport P app (BL→AP) (Caco-2 cell monolayers; human, Caco-2, 180 min) | change of transport (P app) in presence of indomethacin (Caco-2 cell monolayers) | change of transport (P app) in presence of phloridzin (Caco-2 cell monolayers) | change of transport (P app) in presence of verapamil (Caco-2 cell monolayers) | efflux ratio at 180 min [1] | Papp A→B at 180 min, 1 mg/mL [1, 3] [×10⁻⁶ cm/s] | Papp B→A at 180 min [1, 3] [×10⁻⁶ cm/s] | absorption transport P app (AP→BL) (Caco-2 cell monolayers; compound in PTF) | peak concentration (C max) [2] | secretion transport P app (BL→AP) (Caco-2 cell monolayers; compound in PTF) | Papp A→B at 180 min ([1]; mean ± SEM (n = 3)) [×10⁻⁶ cm/s] | P app of GA across Caco-2 cell monolayer (Caco-2 cell monolayer) | P app of marker across the monolayers (Caco-2 cell monolayers; sodium fluorescein 0.6 mg/mL, monolayer integrity check)
O=C(O)c1cc(O)c(O)c(O)c1 [Gallic acid] | greatly improved | more than 1.5 |  | significantly increased | no considerable change | significantly increased | 4.17 |  | 0.1 ± 0.009 |  | lower than 10.47 μg/mL | ~10^−7 cm/s | 0.024 ± 0.004 | about 0.20 × 10^−6 cm/s | 
